Results from patent publication EP2970215B1, “PYRROLIDINE DERIVATIVES, PHARMACEUTICAL COMPOSITIONS CONTAINING THEM, AND THEIR USE IN THERAPY” (AbbVie Deutschland GmbH & Co. KG, priority 2013, dated 2014).

Molecular target: T1, human GlyT1c transporter (Homo sapiens, UniProt P48067)
T1 construct: expressed in transfected cells; host or cells: CHO cells (recombinant; line hGlyT1c_5_CHO is named for the uptake assay)
T1 sequence (P48067 1-706): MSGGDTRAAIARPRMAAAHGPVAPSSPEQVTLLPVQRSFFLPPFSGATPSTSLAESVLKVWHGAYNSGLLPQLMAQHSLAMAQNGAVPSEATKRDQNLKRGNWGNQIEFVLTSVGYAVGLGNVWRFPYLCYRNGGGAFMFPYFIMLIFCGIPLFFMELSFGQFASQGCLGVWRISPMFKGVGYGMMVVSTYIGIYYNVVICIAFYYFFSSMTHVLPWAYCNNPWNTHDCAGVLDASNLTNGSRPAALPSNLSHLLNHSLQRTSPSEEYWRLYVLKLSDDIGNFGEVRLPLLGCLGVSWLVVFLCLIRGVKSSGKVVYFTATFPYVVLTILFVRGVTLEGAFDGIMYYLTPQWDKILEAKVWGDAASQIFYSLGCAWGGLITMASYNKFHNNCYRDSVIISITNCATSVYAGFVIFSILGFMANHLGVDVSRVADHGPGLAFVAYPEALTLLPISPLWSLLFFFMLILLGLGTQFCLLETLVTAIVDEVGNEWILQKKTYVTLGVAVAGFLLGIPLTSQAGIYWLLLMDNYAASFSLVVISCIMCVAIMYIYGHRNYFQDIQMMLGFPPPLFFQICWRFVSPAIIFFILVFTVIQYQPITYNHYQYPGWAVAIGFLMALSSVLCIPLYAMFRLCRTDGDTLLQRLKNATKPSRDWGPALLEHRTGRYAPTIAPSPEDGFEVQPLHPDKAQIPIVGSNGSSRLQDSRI
Experiment: Radioligand binding assay using recombinant CHO cell membranes expressing human GlyT1
Details: radioligand binding to human GlyT1c transporter-expressing membranes
Excerpt: 2. Radioligand binding assays using recombinant CHO cell membranes expressing human GlyT1: […]

| SMILES | Ki [nM] |
| --- | --- |
| Cn1cnc(S(=O)(=O)N2C[C@@H](NCc3cccnc3)[C@H](c3ccc(F)cc3)C2)c1 (relative stereo) [Example 269, trans-4-(4-fluorophenyl)-1-[(1-methyl-1H-imidazol-4-yl)sulfonyl]-N-(pyridin-3-ylmethyl)pyrrolidin-3-amine] | ≤ 10000 |
| Cn1cnc(S(=O)(=O)N2C[C@@H](NCc3ccncc3)[C@H](c3ccc(F)cc3)C2)c1 (relative stereo) [Example 270, trans-4-(4-fluorophenyl)-1-[(1-methyl-1H-imidazol-4-yl)sulfonyl]-N-(pyridin-4-ylmethyl)pyrrolidin-3-amine] | ≤ 10000 |
| Cn1cnc(S(=O)(=O)N2C[C@@H](C(=O)c3ccccc3)[C@H](c3ccc(F)cc3)C2)c1 (relative stereo) [Example 271, {trans-4-(4-fluorophenyl)-1-[(1-methyl-1H-imidazol-4-yl)sulfonyl]pyrrolidin-3-yl}(phenyl)methanone] | ≤ 1000 |
| Cn1cnc(S(=O)(=O)N2C[C@@H](C(=O)Nc3ccc(F)c(Cl)c3)[C@H](c3ccc(F)cc3)C2)c1 (relative stereo) [Example 275, trans-N-(3-chloro-4-fluorophenyl)-4-(4-fluorophenyl)-1-[(1-methyl-1H-imidazol-4-yl)sulfonyl]pyrrolidine-3-carboxamide] | ≤ 1000 |
| Cn1cnc(S(=O)(=O)N2C[C@@H](C(=O)Nc3ccc(C(F)(F)F)c(Cl)c3)[C@H](c3ccc(F)cc3)C2)c1 (relative stereo) [Example 276, trans-N-[3-chloro-4-(trifluoromethyl)phenyl]-4-(4-fluorophenyl)-1-[(1-methyl-1H-imidazol-4-yl)sulfonyl]pyrrolidine-3-carboxamide] | ≤ 1000 |
| Cn1cnc(S(=O)(=O)N2C[C@@H](NCc3ccc(C(F)(F)F)cc3Cl)[C@H](c3ccccc3)C2)c1 (relative stereo) [Example 281, trans-N-[2-chloro-4-(trifluoromethyl)benzyl]-1-[(1-methyl-1H-imidazol-4-yl)sulfonyl]-4-phenylpyrrolidin-3-amine] | ≤ 10 |
| Cn1cnc(S(=O)(=O)N2C[C@@H](NCc3ccc(Cl)cc3Cl)[C@H](c3ccccc3F)C2)c1 (relative stereo) [Example 282, trans-N-(2,4-dichlorobenzyl)-4-(2-fluorophenyl)-1-[(1-methyl-1H-imidazol-4-yl)sulfonyl]pyrrolidin-3-amine] | ≤ 100 |

Further lines, results first:

| Ki [nM] | SMILES |
| --- | --- |
| ≤ 1000 | Cn1cnc(S(=O)(=O)N2C[C@@H](C(=O)Nc3cccc(C(F)(F)F)c3Cl)[C@H](c3ccc(F)cc3)C2)c1 (relative stereo) [Example 272, Trans-N-[2-chloro-3-(trifluoromethyl)phenyl] -4-(4-fluorophenyl)-1 - [(1-methyl-1H-imidazol-4-yl)sulfonyl]pyrrolidine-3-carboxamide] |
| ≤ 100 | Cn1cnc(S(=O)(=O)N2C[C@@H](C(=O)Nc3ccc(F)c(C(F)(F)F)c3)[C@H](c3ccc(F)cc3)C2)c1 (relative stereo) [Example 274, trans-4-(4-fluorophenyl)-N-[4-fluoro-3-(trifluoromethyl)phenyl]-1-[(1-methyl-1H-imidazol-4-yl)sulfonyl]pyrrolidine-3-carboxamide] |
| ≤ 100 | Cn1cnc(S(=O)(=O)N2C[C@@H](Nc3cccc(Cl)c3)[C@H](c3ccccc3Cl)C2)c1 (relative stereo) [Example 278, trans-4-(2-chlorophenyl)-N-(3-chlorophenyl)-1-[(1-methyl-1H-imidazol-4-yl)sulfonyl]pyrrolidin-3-amine] |
| ≤ 10000 | Cn1cnc(S(=O)(=O)N2C[C@@H](NCc3ccc(Cl)cc3Cl)[C@H](c3ccc(F)cc3)C2)c1 (relative stereo) [Example 279, trans-N-(2,4-dichlorobenzyl)-4-(4-fluorophenyl)-1-[(1-methyl-1H-imidazol-4-yl)sulfonyl]pyrrolidin-3-amine] |
| ≤ 10 | Cn1cnc(S(=O)(=O)N2C[C@@H](NCc3ccc(Cl)cc3Cl)[C@H](c3ccccc3)C2)c1 (relative stereo) [Example 280, trans-N-(2,4-dichlorobenzyl)-1-[(1-methyl-1H-imidazol-4-yl)sulfonyl]-4-phenylpyrrolidin-3-amine] |
